In the NIST ThermoML archive (doi:10.1021/je0601356):
Values joined by “and” are separate entries in the source; they are usually repeats but may differ in a detail not shown here. Equal values may be shown once.

Settings: Liquid, Vibrating wire viscometry

CC(F)(F)F [1,1,1-trifluoroethane]
Settings | viscosity
254.35 K, 1340 kPa | 0.2054 mPa·s
254.35 K, 1350 kPa | 0.2063 mPa·s and 0.2059 mPa·s and 0.2062 mPa·s
254.35 K, 1360 kPa | 0.2057 mPa·s and 0.2065 mPa·s
254.35 K, 1410 kPa | 0.206 mPa·s
254.35 K, 1450 kPa | 0.2063 mPa·s
254.35 K, 1960 kPa | 0.208 mPa·s and 0.2082 mPa·s
254.35 K, 1970 kPa | 0.2078 mPa·s
254.35 K, 2010 kPa | 0.2081 mPa·s and 0.208 mPa·s
254.35 K, 2040 kPa | 0.2083 mPa·s
254.35 K, 2070 kPa | 0.2088 mPa·s
254.35 K, 3110 kPa | 0.2114 mPa·s
254.35 K, 3160 kPa | 0.2116 mPa·s
254.35 K, 3170 kPa | 0.2115 mPa·s
254.35 K, 3210 kPa | 0.2122 mPa·s
254.35 K, 3280 kPa | 0.212 mPa·s
254.35 K, 3320 kPa | 0.2119 mPa·s
254.35 K, 4170 kPa | 0.2145 mPa·s
254.35 K, 4190 kPa | 0.2147 mPa·s
254.35 K, 4210 kPa | 0.2147 mPa·s
254.35 K, 4940 kPa | 0.2173 mPa·s
254.35 K, 4970 kPa | 0.2167 mPa·s
254.35 K, 5000 kPa | 0.2176 mPa·s
254.35 K, 5020 kPa | 0.2172 mPa·s
254.35 K, 5050 kPa | 0.2171 mPa·s
254.35 K, 5100 kPa | 0.2176 mPa·s
263.02 K, 1300 kPa | 0.1828 mPa·s
263.02 K, 1320 kPa | 0.1828 mPa·s and 0.1829 mPa·s
263.02 K, 1330 kPa | 0.1827 mPa·s and 0.1826 mPa·s
263.02 K, 1970 kPa | 0.1855 mPa·s
263.02 K, 1980 kPa | 0.1857 mPa·s
263.02 K, 1990 kPa | 0.1855 mPa·s
263.02 K, 2010 kPa | 0.1851 mPa·s
263.02 K, 2020 kPa | 0.1857 mPa·s and 0.1859 mPa·s
263.02 K, 3420 kPa | 0.1899 mPa·s
263.02 K, 3430 kPa | 0.1898 mPa·s
263.02 K, 3450 kPa | 0.1898 mPa·s
263.02 K, 3520 kPa | 0.1903 mPa·s
263.02 K, 3560 kPa | 0.1901 mPa·s
263.02 K, 3590 kPa | 0.1898 mPa·s
263.02 K, 3640 kPa | 0.1906 mPa·s
263.02 K, 3670 kPa | 0.1905 mPa·s and 0.1908 mPa·s
263.02 K, 4800 kPa | 0.1943 mPa·s
263.02 K, 4840 kPa | 0.194 mPa·s
263.02 K, 4870 kPa | 0.194 mPa·s
263.02 K, 4910 kPa | 0.1942 mPa·s
263.02 K, 4950 kPa | 0.1939 mPa·s
263.02 K, 6990 kPa | 0.2018 mPa·s
263.02 K, 7090 kPa | 0.201 mPa·s
263.02 K, 7160 kPa | 0.2015 mPa·s
263.02 K, 7200 kPa | 0.2011 mPa·s
263.02 K, 7230 kPa | 0.2016 mPa·s
263.02 K, 7310 kPa | 0.2013 mPa·s and 0.2019 mPa·s
263.02 K, 7380 kPa | 0.2024 mPa·s
263.02 K, 7390 kPa | 0.2015 mPa·s
263.02 K, 7420 kPa | 0.2011 mPa·s
263.02 K, 7460 kPa | 0.2024 mPa·s and 0.2022 mPa·s
263.02 K, 7520 kPa | 0.2017 mPa·s
273.21 K, 1420 kPa | 0.1617 mPa·s
273.21 K, 1430 kPa | 0.1619 mPa·s
273.21 K, 1440 kPa | 0.1619 mPa·s
273.21 K, 1450 kPa | 0.1619 mPa·s
273.21 K, 1810 kPa | 0.1629 mPa·s
273.21 K, 1820 kPa | 0.1627 mPa·s
273.21 K, 1860 kPa | 0.1629 mPa·s
273.21 K, 1890 kPa | 0.1626 mPa·s
273.21 K, 3450 kPa | 0.1681 mPa·s and 0.1679 mPa·s and 0.1682 mPa·s
273.21 K, 3460 kPa | 0.1677 mPa·s
273.21 K, 3490 kPa | 0.1682 mPa·s and 0.1678 mPa·s
273.21 K, 3500 kPa | 0.168 mPa·s
273.21 K, 4850 kPa | 0.1724 mPa·s
273.21 K, 4860 kPa | 0.1722 mPa·s
273.21 K, 4880 kPa | 0.1724 mPa·s and 0.1719 mPa·s
273.21 K, 4910 kPa | 0.1722 mPa·s
